Measurements from paper PMC11305387, “AlphaFold accelerated discovery of psychotropic agonists targeting the trace amine–associated receptor 1” (Science Advances, 2024).
Converted amounts (≈) assume the structure as drawn.

Experiments:
[1] = Caco-2 cells permeability assay; format: in vitro ADME; conditions: human
Protocol: Caco-2 cell monolayers (passages: 94 to 105) were grown on permeable filter support and used for transport study on day 21 after seeding. Before the experiment, a drug solution of 10 μM was prepared and warmed to 37°C. The Caco-2 filters were washed with pre-warmed HBSS before the experiment, and, thereafter, the experiment was started by applying the donor solution on the apical or basolateral side. The transport experiments were carried out at pH 7.4 in both the apical and basolateral chamber. The experiments were performed at 37°C and with a stirring rate of 500 rpm. The receiver compartment was sampled at 15, 30, and 60 min, and, at 60 min, also a final sample from the donor chamber was taken to calculate the mass balance of the compound. The samples (100 μl) were transferred to a 96-well plate containing 100 μl of methanol, and Warfarin as internal standard and was sealed until LC-MS/MS analysis.

[2] = Plasma protein binding (rapid equilibrium dialysis); format: in vitro ADME; conditions: pH 7.4
Protocol: Pooled human plasma was provided by Uppsala Academic Hospital and was collected from two donors (nonsmoking) (citric acid). In brief, 0.2 ml of the plasma (50% plasma and 50% isotonic buffer) test solution (typically, 10 μM final compound concentration) was transferred to the membrane tube in the rapid equilibrium dialysis (RED) insert (Thermo Fisher Scientific). Isotonic phosphate buffer (0.35 ml; pH 7.4) was added to the other side of the membrane. The 96-well base plate was then sealed with an adhesive plastic film (Scotch Pad) to prevent evaporation. The sample was incubated with rapid rotation (>900 rpm) on a Kisker rotational incubator at 37°C for 4 hours to achieve equilibrium. A stability test of the test solution was prepared (to allow detection of drug degradation), and 100 μl of the plasma test solution (in a plastic vial or on a sealed plate) was incubated at 37°C for 4 hours (or as long as the dialysis time). The plasma test solution was frozen directly after the administration to prevent any degradation. Before LC-MS/MS analysis, the plasma and buffer samples were treated with the addition of methanol (1:3) containing Warfarin as internal standard to precipitate proteins. The standard curve was created using the plasma standard. The plate was then sealed and centrifuged, and the supernatant was analyzed by LC-MS/MS ([78]).

Thermodynamic solubility = format: physicochemical; conditions: 100 mM potassium phosphate buffer, aqueous buffer, thermodynamic from solid, 100 mM KPO4-buffer pH 7.4, 37°C
Protocol: Thermodynamic solubility assay used solid form of compound 65. Solid test compound (~2 to 3 mg) was weighed in a glass high-performance liquid chromatography (HPLC) vial, and 100 mM KPO4-buffer (pH 7.4) was added to give a theoretical max concentration if everything is dissolved of ~5 to 6 mg/ml. The vial was incubated at 900 rpm and 37°C in a rotational shaker for 24 hours. After the incubation, an aliquot (200 μl) was transferred to a glass insert and centrifuged at 10,000g and 37°C for 20 min to separate any solid material from the solution. The supernatant was transferred to a new HPLC vial and analyzed by LC-MS/MS.

hTAAR1 = molecular target: T1, hTAAR1 (Homo sapiens, UniProt Q96RJ0); assay: G protein (mini-Gs) recruitment luminescence complementation assay, agonist mode; format: cell-based
T1 construct: expressed in transfected cells; host or cells: Expi293F
T1 sequence (Q96RJ0 1-339): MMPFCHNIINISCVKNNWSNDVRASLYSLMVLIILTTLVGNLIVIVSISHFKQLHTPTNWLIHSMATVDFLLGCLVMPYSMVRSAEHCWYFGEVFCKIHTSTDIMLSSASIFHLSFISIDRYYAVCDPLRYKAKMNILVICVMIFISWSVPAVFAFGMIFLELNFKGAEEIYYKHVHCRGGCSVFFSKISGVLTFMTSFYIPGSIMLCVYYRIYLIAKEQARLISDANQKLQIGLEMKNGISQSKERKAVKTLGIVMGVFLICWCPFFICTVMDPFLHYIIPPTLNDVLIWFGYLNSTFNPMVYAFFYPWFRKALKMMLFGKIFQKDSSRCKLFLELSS
Protocol: The 62 predicted ligands were purchased from commercial vendors and tested for activity at a concentration of 20 μM in a luminescence complementation–based assay measuring recruitment of mini-Gs to the human TAAR1 ([38]).
To monitor TAAR1 activation by compounds, we used our previously described system. […] Cells were then reseeded in solid white, 96-well plates (Corning) with 90 μl of cell suspension per well. Luminescence was read using a plate reader for 5 min (SPARK 10 M, Tecan) before the addition of compounds to ensure signal stability. Ten microliters of each compound diluted in DPBS was added, and luminescence from each well was read for 10 min, with 100-ms read time per well. The A2AR counter-screen was performed using the same protocol. In these experiments, the hTAAR1 was replaced by a C-terminally SmBiT-tagged hA2AR construct.

Structure (SMILES): CC1=C(c2ccco2)CNCC1 [Compound 65]
- efflux ratio at 60 min, 10 μM [1]: 2.2
- Papp A→B at 60 min, 10 μM ([1]; apical-to-basal, 10 μM, pH 7.4): 77 ×10⁻⁶ cm/s
- Papp B→A at 60 min, 10 μM ([1]; basal-to-apical, 10 μM, pH 7.4): 168 ×10⁻⁶ cm/s
- fraction unbound at 4 h, 10 μM ([2]; human, pooled human plasma (50% plasma and 50% isotonic buffer)): 0.61
- fraction unbound at 4 h, 10 μM ([2]; mouse, mouse plasma (50% plasma and 50% isotonic buffer)): 0.81
- solubility at 24 h (Thermodynamic solubility): 50 mM (≈ 8160 µg/mL)
- EC50 (hTAAR1; TAAR1, G protein recruitment assay, read-out: pEC50 (converted)): 25.1 nM
- fold more potent than Ulotaront (hTAAR1; TAAR1 G protein recruitment): > 25 fold
